According to the NIST ThermoML archive (doi:10.1021/je200793z):
± gives the expanded uncertainty stated by the source.

Legend:
[1] = xn = mol fraction of the nth substance listed

CCC(C)CO (centres undefined) [2-methyl-1-butanol]
Details	surface tension liquid-gas [mN/m]
293.15 K	24.09 ± 0.18
298.15 K	23.61 ± 0.18
303.15 K	23.14 ± 0.17
308.15 K	22.69 ± 0.17
313.15 K	22.3 ± 0.17
318.15 K	21.86 ± 0.17
323.15 K	21.44 ± 0.17

CCC(C)CO (centres undefined) [2-methyl-1-butanol] + CCO
surface tension liquid-gas [mN/m], [1]
Details	293.15 K	298.15 K	303.15 K	308.15 K	313.15 K	318.15 K	323.15 K
x1 = 0.0268	22.48 ± 0.14	22.1 ± 0.14	21.71 ± 0.14	21.39 ± 0.14	21.04 ± 0.14	20.68 ± 0.14	20.36 ± 0.13
x1 = 0.0549	22.65 ± 0.14	22.25 ± 0.14	21.9 ± 0.14	21.56 ± 0.14	21.22 ± 0.14	20.9 ± 0.14	20.55 ± 0.14
x1 = 0.0845	22.76 ± 0.14	22.37 ± 0.14	21.99 ± 0.14	21.67 ± 0.14	21.33 ± 0.14	21 ± 0.14	20.64 ± 0.14
x1 = 0.1156	22.86 ± 0.14	22.47 ± 0.14	22.1 ± 0.14	21.75 ± 0.14	21.44 ± 0.14	21.08 ± 0.14	20.73 ± 0.14
x1 = 0.1484	22.96 ± 0.14	22.54 ± 0.14	22.17 ± 0.14	21.82 ± 0.14	21.49 ± 0.14	21.12 ± 0.14	20.81 ± 0.14
x1 = 0.183	23.01 ± 0.15	22.62 ± 0.14	22.23 ± 0.14	21.89 ± 0.14	21.54 ± 0.14	21.2 ± 0.14	20.86 ± 0.14
x1 = 0.2584	23.15 ± 0.15	22.72 ± 0.15	22.35 ± 0.15	22 ± 0.14	21.61 ± 0.14	21.24 ± 0.14	20.91 ± 0.14
x1 = 0.3433	23.28 ± 0.15	22.86 ± 0.15	22.46 ± 0.15	22.11 ± 0.15	21.76 ± 0.15	21.37 ± 0.14	20.98 ± 0.14
x1 = 0.4395	23.43 ± 0.15	22.98 ± 0.15	22.58 ± 0.15	22.22 ± 0.15	21.83 ± 0.15	21.44 ± 0.15	21.05 ± 0.15
x1 = 0.5495	23.56 ± 0.16	23.09 ± 0.16	22.69 ± 0.16	22.3 ± 0.15	21.94 ± 0.15	21.54 ± 0.15	21.15 ± 0.15
x1 = 0.6765	23.72 ± 0.16	23.25 ± 0.16	22.82 ± 0.16	22.41 ± 0.16	22.02 ± 0.16	21.61 ± 0.16	21.27 ± 0.15
x1 = 0.8247	23.89 ± 0.17	23.38 ± 0.17	22.96 ± 0.17	22.54 ± 0.16	22.13 ± 0.16	21.7 ± 0.16	21.33 ± 0.16
x1 = 1	24.09 ± 0.18	23.61 ± 0.18	23.14 ± 0.17	22.69 ± 0.17	22.3 ± 0.17	21.86 ± 0.17	21.44 ± 0.17

CCC(C)(C)O [2-methylbutan-2-ol]
Details	surface tension liquid-gas [mN/m]
293.15 K	24.04 ± 0.16
298.15 K	23.61 ± 0.16
303.15 K	23.14 ± 0.15
308.15 K	22.69 ± 0.15
313.15 K	22.3 ± 0.15
318.15 K	21.86 ± 0.15
323.15 K	21.44 ± 0.15

CCC(C)(C)O [2-methylbutan-2-ol] + CCO
surface tension liquid-gas [mN/m], [1]
Details	293.15 K	298.15 K	303.15 K	308.15 K	313.15 K	318.15 K	323.15 K
x1 = 0.0268	22.5 ± 0.12	22.05 ± 0.12	21.67 ± 0.12	21.34 ± 0.12	20.93 ± 0.11	20.58 ± 0.11	20.22 ± 0.11
x1 = 0.0549	22.66 ± 0.12	22.23 ± 0.12	21.85 ± 0.12	21.51 ± 0.12	21.16 ± 0.12	20.82 ± 0.12	20.48 ± 0.11
x1 = 0.0845	22.78 ± 0.12	22.36 ± 0.12	21.98 ± 0.12	21.64 ± 0.12	21.3 ± 0.12	20.97 ± 0.12	20.62 ± 0.12
x1 = 0.1156	22.88 ± 0.12	22.46 ± 0.12	22.08 ± 0.12	21.75 ± 0.12	21.41 ± 0.12	21.07 ± 0.12	20.72 ± 0.12
x1 = 0.1484	22.97 ± 0.12	22.54 ± 0.12	22.16 ± 0.12	21.83 ± 0.12	21.48 ± 0.12	21.14 ± 0.12	20.79 ± 0.12
x1 = 0.183	23.04 ± 0.12	22.61 ± 0.12	22.23 ± 0.12	21.89 ± 0.12	–	21.2 ± 0.12	20.84 ± 0.12
x1 = 0.2584	23.16 ± 0.13	22.73 ± 0.12	22.34 ± 0.12	21.99 ± 0.12	–	21.28 ± 0.12	20.92 ± 0.12
x1 = 0.3433	23.28 ± 0.13	22.84 ± 0.13	22.45 ± 0.13	22.09 ± 0.13	21.73 ± 0.12	21.36 ± 0.12	21 ± 0.12
x1 = 0.4395	23.41 ± 0.13	22.97 ± 0.13	22.56 ± 0.13	22.19 ± 0.13	21.82 ± 0.13	21.45 ± 0.13	21.08 ± 0.13
x1 = 0.5495	23.55 ± 0.14	23.1 ± 0.14	22.68 ± 0.13	22.29 ± 0.13	21.92 ± 0.13	21.53 ± 0.13	21.16 ± 0.13
x1 = 0.6765	23.7 ± 0.14	23.24 ± 0.14	22.81 ± 0.14	22.4 ± 0.14	22.02 ± 0.14	21.62 ± 0.14	21.23 ± 0.13
x1 = 0.8247	23.88 ± 0.15	23.41 ± 0.15	22.96 ± 0.15	22.53 ± 0.14	22.15 ± 0.14	21.73 ± 0.14	21.34 ± 0.14
x1 = 1	24.04 ± 0.16	23.61 ± 0.16	23.14 ± 0.15	22.69 ± 0.15	22.3 ± 0.15	21.86 ± 0.15	21.44 ± 0.15
